Results from patent US5023257A, “Intramuscular injection forms of gyrase inhibitors” (Bayer Aktiengesellschaft, priority 1988, dated 1991).

Experiment: release of the active compound from intramuscular suspensions
Details: oily suspensions, water-soluble form (hydrochlorides, lactates, mesilates and other salts), particularly with interfacially surface active materials

## O=C(O)c1cn(C2CC2)c2cc(N3CCNCC3)c(F)cc2c1=O [ciprofloxacin]
  release of the active compound: very rapidly
